Measured values as given in the supplement of paper PMC10307832.

What was measured:
Experiment in all cases: relative viability (nuclei count vs DMSO), 5 days (fraction); higher = more cells survive
CUDC-101 + Foretinib = compound: C#Cc1cccc(Nc2ncnc3cc(OC)c(OCCCCCCC(=O)NO)cc23)c1 [CUDC-101] + COc1cc2c(Oc3ccc(NC(=O)C4(C(=O)Nc5ccc(F)cc5)CC4)cc3F)ccnc2cc1OCCCN1CCOCC1 [Foretinib] (partner 0.25 µM)
In short: (§1)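 Lung cancer cell lines, seeded in 1536-well plates, were treated the following day by pin tool with a single drug or with five library-drug doses (not always all listed) in √10 steps on top of a fixed anchor-drug dose. Cells were fixed and nuclei stained in one step after 5 days, and nuclei were counted. Relative viability is the nuclei count for treated wells divided by that for vehicle wells, reported as medians of duplicate plates.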

Vandetanib + Phenformin = compound: COc1cc2/c(=N/c3ccc(Br)cc3F)nc[nH]c2cc1OCC1CCN(C)CC1 [Vandetanib] + N=C(N)NC(=N)NCCc1ccccc1 [Phenformin] (partner 250 µM)
In short: as §1

Vandetanib + Foretinib = compound: COc1cc2/c(=N/c3ccc(Br)cc3F)nc[nH]c2cc1OCC1CCN(C)CC1 [Vandetanib] + COc1cc2c(Oc3ccc(NC(=O)C4(C(=O)Nc5ccc(F)cc5)CC4)cc3F)ccnc2cc1OCCCN1CCOCC1 [Foretinib] (partner 0.25 µM)
In short: as §1

[1] = compound: C1=CC=C2C(=C1)N=C(S2)C(C#N)C3=NC(=NC=C3)NCCC4=CN=CC=C4 + O=C(CCCCCCC(=O)Nc1ccccc1)NO [Vorinostat] (partner 1 µM)
In short: as §1

Row | Cell Line | relative viability (CUDC-101 + Foretinib; first compound 0.01 µM) | relative viability (CUDC-101 + Foretinib; first compound 0.03162 µM) | relative viability (CUDC-101 + Foretinib; first compound 0.1 µM) | relative viability (CUDC-101 + Foretinib; first compound 0.3162 µM) | relative viability (CUDC-101 + Foretinib; first compound 1 µM) | relative viability (Vandetanib + Phenformin; first compound 0.02 µM) | relative viability (Vandetanib + Phenformin; first compound 0.06325 µM) | relative viability (Vandetanib + Phenformin; first compound 0.2 µM) | relative viability (Vandetanib + Phenformin; first compound 0.6325 µM) | relative viability (Vandetanib + Phenformin; first compound 2 µM) | relative viability (Vandetanib + Foretinib; first compound 0.02 µM) | relative viability (Vandetanib + Foretinib; first compound 0.06325 µM) | relative viability (Vandetanib + Foretinib; first compound 0.2 µM) | relative viability (Vandetanib + Foretinib; first compound 0.6325 µM) | relative viability (Vandetanib + Foretinib; first compound 2 µM) | relative viability ([1]; first compound 0.005 µM) | relative viability ([1]; first compound 0.01581 µM) | relative viability ([1]; first compound 0.05 µM) | relative viability ([1]; first compound 0.1581 µM) | relative viability ([1]; first compound 0.5 µM)
1 | NCI-H2342 | 0.995 | 1.02 | 1.03 | 1.08 | 0.946 | 0.596 | 0.496 | 0.592 | 0.576 | 0.477 | 1.08 | 1.01 | 1.14 | 1.17 | 0.923 | 0.621 | 0.811 | 0.737 | 0.776 | 0.756
2 | NCI-H2347 | 0.888 | 0.948 | 0.902 | 0.99 | 0.689 | 0.336 | – | 0.256 | 0.403 | 0.493 | 1.01 | – | 0.789 | 1.02 | 0.553 | 0.578 | 0.524 | 0.551 | 0.72 | 0.558
3 | NCI-H2405 | 1.09 | 0.991 | 1.08 | 1.16 | 1.04 | 0.376 | 0.302 | 0.374 | 0.39 | 0.202 | 1.01 | 0.81 | 1.08 | 1.07 | 0.99 | 0.82 | 0.938 | 0.953 | 1.15 | 0.727
4 | NCI-H3122 | 1.02 | 0.973 | 0.908 | 0.943 | 0.769 | 0.348 | 0.374 | 0.327 | 0.303 | 0.333 | 0.984 | 0.972 | 0.888 | 0.944 | 0.94 | 0.923 | 1.34 | 0.97 | 1.05 | 1.1
5 | PC-3 [JPC-3] | 1.07 | 1 | 0.882 | 0.539 | 0.294 | 0.471 | 0.466 | 0.496 | 0.334 | 0.331 | 0.984 | 0.904 | 0.936 | 0.894 | 0.468 | 0.864 | – | 0.843 | 0.991 | 0.737
6 | PC-14 | 0.939 | 0.745 | 0.495 | 0.628 | 0.21 | 0.576 | 0.478 | 0.215 | 0.235 | 0.125 | 0.955 | 0.916 | 0.959 | 0.447 | 0.196 | 0.642 | 0.769 | 0.675 | 0.753 | 0.576
7 | RERF-LC-KJ | 0.884 | 0.889 | 0.791 | 0.812 | 0.644 | 0.436 | 0.379 | 0.37 | 0.375 | 0.335 | 0.875 | 0.951 | 0.904 | 0.882 | 0.937 | 0.603 | 0.623 | 0.609 | 0.7 | 0.578
8 | SK-LU-1 | 0.885 | 0.793 | 0.891 | 0.771 | 0.662 | 0.518 | 0.405 | 0.464 | 0.491 | 0.558 | 0.819 | 0.564 | 0.197 | 0.798 | 0.805 | 0.643 | 0.859 | 0.787 | 0.911 | 0.685
9 | SK-MES-1 | 0.937 | 0.843 | 0.981 | 1.01 | 0.679 | 0.657 | 0.608 | 0.62 | 0.581 | 0.471 | 0.986 | 0.802 | 1.01 | 0.83 | 0.665 | 1.01 | 1.06 | 0.938 | 1.32 | 0.935
10 | SW 900 | 0.761 | 0.629 | 0.738 | 0.885 | 0.716 | 0.635 | 0.657 | 0.197 | 0.474 | 0.434 | 0.927 | 0.779 | 0.143 | 1 | 0.917 | 0.495 | 0.42 | 0.67 | 0.693 | 0.456
11 | SW 1573 | 1.02 | 1.03 | 1.08 | 0.862 | 0.611 | 0.357 | 0.382 | 0.397 | 0.347 | 0.351 | 0.965 | 0.946 | 0.81 | 0.91 | 0.951 | 0.577 | 0.82 | 0.43 | 0.846 | 0.618
